Results taken from the supplement of paper PMC10307832.

Tests used:
Experiment in all cases: relative viability (nuclei count vs DMSO), 5 days (fraction); higher = more cells survive
Gemcitabine + Decitabine = compound: Nc1ccn([C@@H]2O[C@H](CO)[C@@H](O)C2(F)F)c(=O)n1 [Gemcitabine] + Nc1ncn([C@H]2C[C@H](O)[C@@H](CO)O2)c(=O)n1 [Decitabine] (partner 2 µM)
Method in brief: (§1)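 A single step with final 0.05% Triton X-100, 1% formaldehyde and 1 ug/ml Hoechst fixed the cells and stained nuclei 5 days after treatment. Lung cancer cell lines in 1536-well plates had been treated by pin tool the day after seeding with one drug alone or a fixed anchor-drug dose plus five library-drug doses (not always all listed) in √10 steps, and nuclei were counted on 4× images. Relative viability is the ratio of nuclei in treated wells to nuclei in vehicle wells, taken as the median of duplicate plates.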

Gemcitabine + Crizotinib = compound: Nc1ccn([C@@H]2O[C@H](CO)[C@@H](O)C2(F)F)c(=O)n1 [Gemcitabine] + C[C@@H](Oc1cc(-c2cnn(C3CCNCC3)c2)cnc1N)c1c(Cl)ccc(F)c1Cl [Crizotinib] (partner 1 µM)
Method in brief: as §1

Gemcitabine + Phenformin = compound: Nc1ccn([C@@H]2O[C@H](CO)[C@@H](O)C2(F)F)c(=O)n1 [Gemcitabine] + N=C(N)NC(=N)NCCc1ccccc1 [Phenformin] (partner 250 µM)
Method in brief: as §1

Gemcitabine + Navitoclax = compound: Nc1ccn([C@@H]2O[C@H](CO)[C@@H](O)C2(F)F)c(=O)n1 [Gemcitabine] + CC1(C)CCC(c2ccc(Cl)cc2)=C(CN2CCN(c3ccc(C(=O)NS(=O)(=O)c4ccc(N[C@H](CCN5CCOCC5)CSc5ccccc5)c(S(=O)(=O)C(F)(F)F)c4)cc3)CC2)C1 [Navitoclax] (partner 0.5 µM)
Method in brief: as §1

Cell Line	relative viability (Gemcitabine + Decitabine; first compound 0.001 µM)	relative viability (Gemcitabine + Decitabine; first compound 0.003162 µM)	relative viability (Gemcitabine + Decitabine; first compound 0.01 µM)	relative viability (Gemcitabine + Decitabine; first compound 0.03162 µM)	relative viability (Gemcitabine + Decitabine; first compound 0.1 µM)	relative viability (Gemcitabine + Crizotinib; first compound 0.001 µM)	relative viability (Gemcitabine + Crizotinib; first compound 0.003162 µM)	relative viability (Gemcitabine + Crizotinib; first compound 0.01 µM)	relative viability (Gemcitabine + Crizotinib; first compound 0.03162 µM)	relative viability (Gemcitabine + Crizotinib; first compound 0.1 µM)	relative viability (Gemcitabine + Phenformin; first compound 0.001 µM)	relative viability (Gemcitabine + Phenformin; first compound 0.003162 µM)	relative viability (Gemcitabine + Phenformin; first compound 0.01 µM)	relative viability (Gemcitabine + Phenformin; first compound 0.03162 µM)	relative viability (Gemcitabine + Phenformin; first compound 0.1 µM)	relative viability (Gemcitabine + Navitoclax; first compound 0.001 µM)	relative viability (Gemcitabine + Navitoclax; first compound 0.003162 µM)	relative viability (Gemcitabine + Navitoclax; first compound 0.01 µM)	relative viability (Gemcitabine + Navitoclax; first compound 0.03162 µM)	relative viability (Gemcitabine + Navitoclax; first compound 0.1 µM)
HCC-366	0.329	0.331	0.0609	0.0417	0.0234	0.629	0.588	0.0778	0.0184	0.0078	0.622	0.662	0.144	0.0348	0.0327	1.03	1.01	0.656	0.014	0.0109
HCC-827	0.333	0.226	0.274	0.166	0.186	0.886	0.674	0.572	0.387	0.214	0.448	0.248	0.281	0.197	0.154	0.967	0.815	0.557	0.357	0.224
HOP-62	0.253	0.172	0.16	0.0888	0.121	0.906	0.677	0.0595	0.051	0.0502	0.67	0.492	0.239	0.0719	0.0597	0.933	0.813	0.097	0.0507	0.0459
LC-2-ad	0.797	0.863	0.729	0.658	0.469	0.471		0.427	0.162	0.109	0.569	0.347	0.339	0.212	0.161	0.431	0.4	0.236	0.118	0.0927
LCLC-97TM1	0.235	0.206	0.143	0.104	0.0854	0.297	0.179	0.0935	0.0797	0.12	0.376	0.406	0.179	0.187	0.144	0.379	0.182	0.0922	0.0774	0.106
LK-2	0.242	0.23	0.204	0.109	0.128	0.285		0.255	0.238	0.225	0.834	0.43	0.313	0.142	0.142	0.822	0.732	0.444	0.222	0.203
LOU-NH91	0.801	0.732	0.756	0.562	0.41	0.715	0.594	0.451	0.286	0.271	0.723	0.498	0.442	0.225	0.21	0.717	0.448	0.292	0.213	0.213
LU99A	0.789	1.03	0.816	0.985	0.836	0.577	0.648	0.567	0.567	0.562	0.857	0.949	0.805	0.801	0.789	0.875	0.976	0.667	0.871	0.474
LXF-289	0.396	0.372	0.321	0.222	0.151	0.786	0.783	0.562	0.127	0.112	0.517	0.445	0.263	0.0911	0.0812	0.934	0.925	0.655	0.084	0.0735
NCI-H23	0.284	0.237	0.155	0.157	0.136	0.297	0.206	0.12	0.131	0.152	0.71	0.491	0.144	0.136	0.135	0.866	0.245	0.125	0.139	0.124
NCI-H322M	0.607	0.445	0.41	0.457	0.388	0.85	0.357	0.269	0.219	0.212	0.635	0.378	0.288	0.334	0.268	0.96	0.52	0.286	0.207	0.228
NCI-H441	0.208	0.212	0.17	0.167	0.127	0.82	0.286	0.167	0.121	0.129	0.808	0.552	0.269	0.204	0.176	0.348	0.211	0.171	0.189	0.102
NCI-H460	0.475	0.451	0.417	0.0447	0.0204	1.12	0.894	0.528	0.0182	0.0089	0.589	0.565	0.0724	0.0156	0.0098	1.09	1.05	0.533	0.0127	0.0085
NCI-H520	0.525	0.48	0.289	0.189	0.198	0.915	0.769	0.465	0.156	0.108	0.536	0.554	0.225	0.163	0.154	1.23	1.17	0.35	0.205	0.158
NCI-H596	1.15	0.973	0.763	0.449	0.466	1.04	1.02	0.531	0.391	0.345	0.74	0.612	0.489	0.262	0.306	1.06	0.949	0.506	0.23	0.171
NCI-H647	0.308	0.257	0.151	0.104	0.0673	1.09	0.195	0.0721	0.0642	0.0615	0.334	0.144	0.058	0.0604	0.0397	0.916	0.253	0.0668	0.0642	0.0514
